Assay: xn = mol fraction of the nth substance listed

CCOS(=O)(=O)[O-].CC[n+]1ccn(C)c1 + O
Conditions | electrical conductivity [S/m] | viscosity [mPa·s]
283.15 K, 101 kPa, x2 = 0.1966 | – | 136.9
283.15 K, 101 kPa, x2 = 0.6124 | – | 32.65
288.15 K, 100 kPa, x1 = 0.0005131 | – | 1.163
288.15 K, 100 kPa, x1 = 0.0008362 | – | 1.177
288.15 K, 100 kPa, x1 = 0.001227 | – | 1.193
288.15 K, 100 kPa, x1 = 0.002025 | – | 1.227
288.15 K, 100 kPa, x1 = 0.002516 | – | 1.25
288.15 K, 100 kPa, x1 = 0.003482 | – | 1.292
288.15 K, 100 kPa, x1 = 0.00456 | – | 1.342
288.15 K, 100 kPa, x1 = 0.006613 | – | 1.426
288.15 K, 100 kPa, x1 = 0.008007 | – | 1.491
288.15 K, 100 kPa, x1 = 0.009969 | – | 1.577
288.15 K, 100 kPa, x1 = 0.01406 | – | 1.777
288.15 K, 100 kPa, x1 = 0.0162 | – | 1.889
293.15 K, 100 kPa, x1 = 0.0005131 | – | 1.012
293.15 K, 100 kPa, x1 = 0.0008362 | – | 1.024
293.15 K, 100 kPa, x1 = 0.002516 | – | 1.092
293.15 K, 100 kPa, x1 = 0.003482 | – | 1.129
293.15 K, 100 kPa, x1 = 0.00456 | – | 1.171
293.15 K, 100 kPa, x1 = 0.006613 | – | 1.247
293.15 K, 100 kPa, x1 = 0.008007 | – | 1.295
293.15 K, 100 kPa, x1 = 0.009969 | – | 1.365
293.15 K, 100 kPa, x1 = 0.01406 | – | 1.508
293.15 K, 100 kPa, x1 = 0.0162 | – | 1.597
293.15 K, 101 kPa, x2 = 0.0023 | – | 133.9
293.15 K, 101 kPa, x2 = 0.1225 | – | 99.1
298.15 K, 100 kPa, x1 = 0.0005131 | – | 0.9026
298.15 K, 100 kPa, x1 = 0.0008362 | – | 0.9136
298.15 K, 100 kPa, x1 = 0.001227 | – | 0.929
298.15 K, 100 kPa, x1 = 0.002025 | – | 0.9545
298.15 K, 100 kPa, x1 = 0.002516 | – | 0.9707
298.15 K, 100 kPa, x1 = 0.003482 | – | 1.004
298.15 K, 100 kPa, x1 = 0.00456 | – | 1.039
298.15 K, 100 kPa, x1 = 0.006613 | – | 1.1
298.15 K, 100 kPa, x1 = 0.008007 | – | 1.141
298.15 K, 100 kPa, x1 = 0.009969 | – | 1.201
298.15 K, 100 kPa, x1 = 0.01406 | – | 1.322
298.15 K, 100 kPa, x1 = 0.0162 | – | 1.392
298.15 K, 101 kPa, x1 = 0.003 | 0.74 | –
298.15 K, 101 kPa, x1 = 0.047 | 4 | –
298.15 K, 101 kPa, x2 = 0.1608 | – | 70
298.15 K, 101.3 kPa, x1 = 0.01871 | 3.26 | –
298.15 K, 101.3 kPa, x2 = 0 | 0.398 | –
298.15 K, 101.3 kPa, x2 = 0.8489 | 3.85 | –
298.15 K, 101.3 kPa, x2 = 0.9291 | 4.45 | –
298.15 K, 101.3 kPa, x2 = 0.9684 | 3.95 | –
298.15 K, 101.3 kPa, x2 = 0.9752 | 3.66 | –
303.15 K, 100 kPa, x1 = 0.0005131 | – | 0.8072
303.15 K, 100 kPa, x1 = 0.0008362 | – | 0.8175
303.15 K, 100 kPa, x1 = 0.001227 | – | 0.8288
303.15 K, 100 kPa, x1 = 0.002025 | – | 0.8498
303.15 K, 100 kPa, x1 = 0.002516 | – | 0.8628
303.15 K, 100 kPa, x1 = 0.003482 | – | 0.8878
303.15 K, 100 kPa, x1 = 0.00456 | – | 0.9163
303.15 K, 100 kPa, x1 = 0.006613 | – | 0.9752
303.15 K, 100 kPa, x1 = 0.008007 | – | 1.01
303.15 K, 100 kPa, x1 = 0.01406 | – | 1.156
308.15 K, 100 kPa, x1 = 0.0005131 | – | 0.7285
308.15 K, 100 kPa, x1 = 0.0008362 | – | 0.7368
308.15 K, 100 kPa, x1 = 0.001227 | – | 0.7453
308.15 K, 100 kPa, x1 = 0.002025 | – | 0.7648
308.15 K, 100 kPa, x1 = 0.002516 | – | 0.774
308.15 K, 100 kPa, x1 = 0.003482 | – | 0.7947
308.15 K, 100 kPa, x1 = 0.00456 | – | 0.8202
308.15 K, 100 kPa, x1 = 0.006613 | – | 0.8682
308.15 K, 100 kPa, x1 = 0.008007 | – | 0.8953
308.15 K, 100 kPa, x1 = 0.009969 | – | 0.9332
308.15 K, 100 kPa, x1 = 0.01406 | – | 1.02
308.15 K, 100 kPa, x1 = 0.0162 | – | 1.066
313.15 K, 100 kPa, x1 = 0.0005131 | – | 0.6616
313.15 K, 100 kPa, x1 = 0.0008362 | – | 0.669
313.15 K, 100 kPa, x1 = 0.001227 | – | 0.6761
313.15 K, 100 kPa, x1 = 0.002025 | – | 0.6922
313.15 K, 100 kPa, x1 = 0.002516 | – | 0.7008
313.15 K, 100 kPa, x1 = 0.003482 | – | 0.7189
313.15 K, 100 kPa, x1 = 0.00456 | – | 0.7368
313.15 K, 100 kPa, x1 = 0.006613 | – | 0.7779
313.15 K, 100 kPa, x1 = 0.008007 | – | 0.8031
313.15 K, 100 kPa, x1 = 0.009969 | – | 0.8366
313.15 K, 100 kPa, x1 = 0.01406 | – | 0.9075
313.15 K, 100 kPa, x1 = 0.0162 | – | 0.9429
313.15 K, 101 kPa, x1 = 0.003 | 0.97 | –
313.15 K, 101 kPa, x1 = 0.008 | 2.5 | –
313.15 K, 101 kPa, x1 = 0.013 | 3.4 | –
313.15 K, 101 kPa, x1 = 0.019 | 3.9 | –
313.15 K, 101 kPa, x1 = 0.151 | 4.7 | –
313.15 K, 101 kPa, x1 = 0.642 | 1.4 | –
318.15 K, 100 kPa, x1 = 0.0005131 | – | 0.6014
318.15 K, 100 kPa, x1 = 0.0008362 | – | 0.6088
318.15 K, 100 kPa, x1 = 0.001227 | – | 0.6154
318.15 K, 100 kPa, x1 = 0.002025 | – | 0.6285
318.15 K, 100 kPa, x1 = 0.002516 | – | 0.6341
318.15 K, 100 kPa, x1 = 0.003482 | – | 0.6498
318.15 K, 100 kPa, x1 = 0.00456 | – | 0.6693
318.15 K, 100 kPa, x1 = 0.006613 | – | 0.6989
318.15 K, 100 kPa, x1 = 0.008007 | – | 0.7189
318.15 K, 100 kPa, x1 = 0.009969 | – | 0.7489
318.15 K, 100 kPa, x1 = 0.01406 | – | 0.8092
318.15 K, 100 kPa, x1 = 0.0162 | – | 0.8249
323.15 K, 100 kPa, x1 = 0.0005131 | – | 0.5543
323.15 K, 100 kPa, x1 = 0.0008362 | – | 0.5575
323.15 K, 100 kPa, x1 = 0.001227 | – | 0.5629
323.15 K, 100 kPa, x1 = 0.002025 | – | 0.5726
323.15 K, 100 kPa, x1 = 0.002516 | – | 0.5798
323.15 K, 100 kPa, x1 = 0.003482 | – | 0.592
323.15 K, 100 kPa, x1 = 0.00456 | – | 0.6071
323.15 K, 100 kPa, x1 = 0.006613 | – | 0.6309
323.15 K, 100 kPa, x1 = 0.008007 | – | 0.6496
323.15 K, 100 kPa, x1 = 0.009969 | – | 0.672
323.15 K, 100 kPa, x1 = 0.01406 | – | 0.7192
323.15 K, 100 kPa, x1 = 0.0162 | – | 0.7349
323.15 K, 101 kPa, x2 = 0.427 | – | 14.57
328.15 K, 100 kPa, x1 = 0.0005131 | – | 0.5096
328.15 K, 100 kPa, x1 = 0.0008362 | – | 0.5125
328.15 K, 100 kPa, x1 = 0.001227 | – | 0.5161
328.15 K, 100 kPa, x1 = 0.002025 | – | 0.5251
328.15 K, 100 kPa, x1 = 0.002516 | – | 0.5307
328.15 K, 100 kPa, x1 = 0.003482 | – | 0.5404
328.15 K, 100 kPa, x1 = 0.00456 | – | 0.5521
328.15 K, 100 kPa, x1 = 0.006613 | – | 0.5713
343.15 K, 101 kPa, x2 = 0.0023 | – | 19.63
343.15 K, 101 kPa, x2 = 0.1966 | – | 14.47
343.15 K, 101 kPa, x2 = 0.427 | – | 8.918

CC[n+]1ccn(C)c1.F[P-](F)(F)(F)(F)F + O
viscosity [mPa·s], 100 kPa
Conditions | 298.15 K | 303.15 K | 308.15 K
x1 = 1.802e-05 | 0.919 | 0.85 | 0.777
x1 = 5.406e-05 | 0.933 | 0.855 | 0.782
x1 = 9.009e-05 | 0.948 | 0.86 | 0.787

CC[n+]1ccn(C)c1.[Br-] + O
viscosity [mPa·s], 100 kPa
Conditions | 288.15 K | 298.15 K | 303.15 K | 308.15 K | 318.15 K | 333.15 K
x1 = 0.0001802 | 1.141 | 0.911 | – | 0.744 | 0.627 | –
x1 = 0.0007203 | 1.147 | 0.916 | – | 0.748 | 0.632 | –
x1 = 0.00126 | 1.152 | 0.923 | – | 0.754 | 0.639 | –
x1 = 0.049 | – | – | 1.48 | – | – | 0.797
x1 = 0.1978 | – | – | 5.45 | – | – | –
